Data from patent US7357991B2, “Soluble compound and organic electroluminescent devices” (Idemitsu Kosan Co., Ltd., priority 2001, dated 2008).

Test: Solubility in organic solvents
Assay type: physicochemical
Conditions: in each of toluene, xylene, N-methylpyrrolidone, γ-butyrolactone, 1,3-dimethyl-2-imidazoline, carbitol acetate, butylcarbitol acetate, dichloromethane, dichloroethane, chlorobenzene and isopropyl alcohol
Experimental: Examples of the distyrylarylene derivative represented by general formula (1) of the present invention will be shown in the following. However, the distyrylarylene derivative of the present invention is not limited to the compounds shown as the examples. In the following, C5 means n-pentyl group. The compounds shown in the following as the examples are all dissolved into 1,2-dichloroethane at 20° C. in an amount of 0.5% by weight or more.
In the same procedures as those conducted in Example 1, 4,4″-bis(2,2-diphenylethenyl)-9′,10′-diphenylanthracene was used in place of Compound (A1) and attempted to be dissolved in organic solvents, which were toluene, xylene, N-methylpyrrolidone, γ-butyrolactone, 1,3-dimethyl-2-imidazoline, carbitol acetate, butylcarbitol acetate, dichloromethane, dichloroethane, chlorobenzene and isopropyl alcohol. However, this compound was hardly soluble in these solvents since the solubility was smaller than 0.01% by weight in all of these solvents, and no device could be prepared.

solubility: smaller than 0.01 % by weight
SMILES: C(=C(c1ccccc1)c1ccccc1)c1ccc(-c2c3ccccc3c(-c3ccc(C=C(c4ccccc4)c4ccccc4)cc3)c3ccccc23)cc1 [4,4″-bis(2,2-diphenylethenyl)-9′,10′-diphenylanthracene]
